test system: H1650 lung cancer cells; assay: Cell viability assay (MTT, IC50 determination); type: cell-based; details: Homo sapiens, NCI-H1650, 48 h, read-out: H1650 cell viability IC50
Protocol: Cell viability assays were performed according to Denizot, F. and R. Lang, Journal of Immunological Methods, 1986. 89(22): p. 271-277. H1650 lung cancer cells were plated at 150,000 cells per well in a 12 well plate. Twenty-four hours after plating, cells were treated as described with increasing concentrations of drug and control. Forty-eight hours after drug treatment, cells were treated with 100 μL of 3-(4,5-Dimethylthiazol-2-yl)-2,5-diphenyltetrazolium bromide (MTT) and incubated for 2 hours at 37 C. The MTT solution was subsequently replaced with 300 μL of n-propyl alcohol and re-aliquoted to a 96 well plate. Spectrophotometric analysis of each solution was performed using a 96 well plate reader at 600 nm in triplicate.

Compound | IC50 [µM]
[N-]=[N+]=Nc1ccc(S(=O)(=O)N[C@@H]2COC[C@H](N3c4ccccc4Oc4ccccc43)[C@H]2O)cc1 [Example 6] | 25
CC(=O)N1C[C@H](NS(=O)(=O)c2ccc(OC(F)(F)F)cc2)[C@@H](O)[C@H](N2c3ccccc3Oc3ccccc32)C1 [Example 18b, N-((3S,4S,5R)-1-acetyl-4-hydroxy-5-(10H-phenoxazin-10-yl)piperidin-3-yl)-4-(trifluoromethoxy)benzenesulfonamide] | 15
COC(=O)N1C[C@@H](NS(=O)(=O)c2ccc(OC(F)(F)F)cc2)[C@H](O)[C@@H](N2c3ccccc3Oc3ccccc32)C1 [Example 20a, (3S,4R,5R)-methyl 4-hydroxy-3-(10H-phenoxazin-10-yl)-5-(4-(trifluoromethoxy)phenylsulfonamido)piperidine-1-carboxylate] | 15
COC(=O)N1C[C@H](NS(=O)(=O)c2ccc(OC(F)(F)F)cc2)[C@@H](O)[C@H](N2c3ccccc3Oc3ccccc32)C1 [Example 20b, (3R,4S,5S)-methyl 4-hydroxy-3-(10H-phenoxazin-10-yl)-5-(4-(trifluoromethoxy)phenylsulfonamido)piperidine-1-carboxylate] | 5

same assay, conditions: Homo sapiens, NCI-H1650; H1650 lung cancer cells, MTT, 48 hours after drug treatment; read-out: H1650 cell viability IC50

IC50 [µM] | Compound
25 | CN1C[C@@H](NS(=O)(=O)c2ccc(OC(F)(F)F)cc2)[C@H](O)[C@@H](N2c3ccccc3Oc3ccccc32)C1 [Example 19a]
15 | O=S(=O)(N[C@@H]1COC[C@H](N2c3ccccc3Oc3ccc(F)cc32)[C@H]1O)c1ccc(OC(F)(F)F)cc1 [Example 7, N-((3R,4R,5S)-5-(2-fluoro-10H-phenoxazin-10-yl)-4-hydroxytetrahydro-2H-pyran-3-yl)-4-(trifluoromethoxy)benzenesulfonamide]
20 | CC(=O)N1CC(NS(=O)(=O)c2ccc(OC(F)(F)F)cc2)[C@H](O)C(N2c3ccccc3Oc3ccccc32)C1 (mixture of isomers) [Example 18, Rac-N-((3R,4R,5S)-1-acetyl-4-hydroxy-5-(10H-phenoxazin-10-yl)piperidin-3-yl)-4-(trifluoromethoxy)benzenesulfonamide]
5 | CC(C)(C)OC(=O)N1C[C@@H](NS(=O)(=O)c2ccc(OC(F)(F)F)cc2)[C@H](O)[C@@H](N2c3ccc(C(F)(F)F)cc3Oc3cc(C(F)(F)F)ccc32)C1 [Example 57, (3S,4R,5R)-tert-butyl 3-(3,7-bis(trifluoromethyl)-10H-phenoxazin-10-yl)-4-hydroxy-5-(4-(trifluoromethoxy)phenylsulfonamido)piperidine-1-carboxylate]
15 | O=S(=O)(N[C@@H]1COC[C@H](n2c3ccccc3c3cc(F)ccc32)[C@H]1O)c1ccc(OC(F)(F)F)cc1 [Example 4, N-((3R,4R,5S)-5-(3-fluoro-9H-carbazol-9-yl)-4-hydroxytetrahydro-2H-pyran-3-yl)-4-(trifluoromethoxy)benzenesulfonamide]
10 | CC(C)(C)OC(=O)N1C[C@H](NS(=O)(=O)c2ccc(OC(F)(F)F)cc2)[C@@H](O)[C@H](N2c3ccccc3Oc3ccccc32)C1 [Example 16b, (3R,4S,5S)-tert-butyl 4-hydroxy-3-(10H-phenoxazin-10-yl)-5-(4-(trifluoromethoxy)phenylsulfonamido)piperidine-1-carboxylate]
10 | O=S(=O)(N[C@@H]1COC[C@H](N2c3ccc(Cl)cc3Oc3cc(Cl)ccc32)[C@H]1O)c1ccc(OC(F)(F)F)cc1 [Example 12, N-((3R,4R,5S)-5-(3,7-dichloro-10H-phenoxazin-10-yl)-4-hydroxytetrahydro-2H-pyran-3-yl)-4-(trifluoromethoxy)benzenesulfonamide]
5 | O=S(=O)(N[C@@H]1COC[C@H](N2c3ccccc3Oc3ccccc32)[C@H]1O)c1ccc(Cl)cc1 [Example 61, 4-chloro-N-((3R,4R,5S)-4-hydroxy-5-(10H-phenoxazin-10-yl)tetrahydro-2H-pyran-3-yl)benzenesulfonamide]
15 | O=S(=O)(N[C@@H]1COCC(N2c3ccccc3Oc3ccccc32)[C@H]1O)c1ccc(OC(F)(F)F)cc1 (relative stereo) [Example 2, N-(4-hydroxy-5-(10H-phenoxazin-10-yl)tetrahydro-2H-pyran-3-yl)-4-(trifluoromethoxy)benzenesulfonamide]
5 | O=S(=O)(N[C@@H]1COC[C@H](N2c3ccccc3Oc3cc(Cl)ccc32)[C@H]1O)c1ccc(OC(F)(F)F)cc1 [Example 13, N-((3R,4R,5S)-5-(3-chloro-10H-phenoxazin-10-yl)-4-hydroxytetrahydro-2H-pyran-3-yl)-4-(trifluoromethoxy)benzenesulfonamide]
15 | O=S(=O)(N[C@@H]1COC[C@H](N2c3ccccc3Oc3ccccc32)[C@H]1O)c1cccc(Cl)c1 [Example 64, 3-chloro-N-((3R,4R,5S)-4-hydroxy-5-(10H-phenoxazin-10-yl)tetrahydro-2H-pyran-3-yl)benzenesulfonamide]
10 | O=S(=O)(N[C@@H]1COC[C@H](n2c3ccccc3c3ccccc32)[C@H]1O)c1ccc(OC(F)(F)F)cc1 [Example 50, N-((3R,4R,5S)-5-(9H-carbazol-9-yl)-4-hydroxytetrahydro-2H-pyran-3-yl)-4-(trifluoromethoxy)benzenesulfonamide]
5 | O=S(=O)(N[C@@H]1COC[C@H](N2c3ccccc3Oc3cc(C(F)(F)F)ccc32)[C@H]1O)c1ccc(OC(F)(F)F)cc1 [Example 15, N-((3R,4R,5S)-4-hydroxy-5-(3-(trifluoromethyl)-10H-phenoxazin-10-yl)tetrahydro-2H-pyran-3-yl)-4-(trifluoromethoxy)benzenesulfonamide]

More lines, now with the values behind:

Compound | IC50 [µM]
CC(C)(C)OC(=O)N1C[C@@H](NS(=O)(=O)c2ccc(OC(F)(F)F)cc2)[C@H](O)[C@@H](n2c3ccc(Cl)cc3c3cc(Cl)ccc32)C1 [Example 56, (3S,4R,5R)-tert-butyl 3-(3,6-dichloro-9H-carbazol-9-yl)-4-hydroxy-5-(4-(trifluoromethoxy)phenylsulfonamido)piperidine-1-carboxylate] | 5
O=S(=O)(N[C@@H]1COC[C@H](n2c3ccc(Cl)cc3c3cc(Cl)ccc32)[C@H]1O)c1ccc(OC(F)(F)F)cc1 [Example 5, N-((3R,4R,5S)-5-(3,6-dichloro-9H-carbazol-9-yl)-4-hydroxytetrahydro-2H-pyran-3-yl)-4-(trifluoromethoxy)benzenesulfonamide] | 5
O=S(=O)(N[C@@H]1CNC[C@H](n2c3ccc(F)cc3c3cc(F)ccc32)[C@H]1O)c1ccc(OC(F)(F)F)cc1 [Example 55, N-((3R,4R,5S)-5-(3,6-difluoro-9H-carbazol-9-yl)-4-hydroxypiperidin-3-yl)-4-(trifluoromethoxy)benzenesulfonamide] | 5
O=S(=O)(N[C@H]1CNC[C@@H](n2c3ccccc3c3ccccc32)[C@@H]1O)c1ccc(OC(F)(F)F)cc1 [Example 41b, N-((3S,4S,5R)-5-(9H-carbazol-9-yl)-4-hydroxypiperidin-3-yl)-4-(trifluoromethoxy)benzenesulfonamide] | 10
Cc1ccc2c(c1)c1cc(C)ccc1n2[C@H]1COC[C@@H](NS(=O)(=O)c2ccc(OC(F)(F)F)cc2)[C@@H]1O [Example 51, N-((3R,4R,5S)-5-(3,6-dimethyl-9H-carbazol-9-yl)-4-hydroxytetrahydro-2H-pyran-3-yl)-4-(trifluoromethoxy)benzenesulfonamide] | 5
O=S(=O)(N[C@@H]1COC[C@H](N2c3ccccc3Oc3ccccc32)[C@H]1O)c1ccccc1Cl [Example 65, 2-chloro-N-((3R,4R,5S)-4-hydroxy-5-(10H-phenoxazin-10-yl)tetrahydro-2H-pyran-3-yl)benzenesulfonamide] | 20
O=S(=O)(N[C@@H]1COC[C@H](N2c3ccccc3Oc3ccccc32)[C@H]1O)c1ccc(Cl)s1 [Example 62, 5-chloro-N-((3R,4R,5S)-4-hydroxy-5-(10H-phenoxazin-10-yl)tetrahydro-2H-pyran-3-yl)thiophene-2-sulfonamide] | 15
CC(C)(C)OC(=O)Nc1cccc(S(=O)(=O)N[C@@H]2COC[C@H](N3c4ccccc4Oc4ccccc43)[C@H]2O)c1 [Example 68, tert-butyl (3-(N-((3R,4R,5S)-4-hydroxy-5-(10H-phenoxazin-10-yl)tetrahydro-2H-pyran-3-yl)sulfamoyl)phenyl)carbamate] | 5
O=S(=O)(N[C@@H]1CNC[C@H](n2c3ccc(Cl)cc3c3cc(Cl)ccc32)[C@H]1O)c1ccc(OC(F)(F)F)cc1 [Example 44] | 10
CC(C)(C)OC(=O)N1C[C@@H](NS(=O)(=O)c2ccc(OC(F)(F)F)cc2)[C@H](O)[C@@H](n2c3ccc(F)cc3c3cc(F)ccc32)C1 [Example 54, (3S,4R,5R)-tert-butyl 3-(3,6-difluoro-9H-carbazol-9-yl)-4-hydroxy-5-(4-(trifluoromethoxy)phenylsulfonamido)piperidine-1-carboxylate] | 5
CC(C)(C)OC(=O)N1C[C@H](NS(=O)(=O)c2ccc(OC(F)(F)F)cc2)[C@@H](O)[C@H](n2c3ccccc3c3ccccc32)C1 [Example 52b, (3R,4S,5S)-tert-butyl 3-(9H-carbazol-9-yl)-4-hydroxy-5-(4-(trifluoromethoxy)phenylsulfonamido)piperidine-1-carboxylate] | 5

same assay, conditions: at 40 uM; H1650 lung cancer cells, MTT, 48 hours

Compound | H1650 cell viability, % at 40 uM [% at 40 uM]
Nc1ccc(S(=O)(=O)N[C@@H]2COC[C@H](N3c4ccccc4Oc4ccccc43)[C@H]2O)cc1 [Example 67, 4-amino-N-((3R,4R,5S)-4-hydroxy-5-(10H-phenoxazin-10-yl)tetrahydro-2H-pyran-3-yl)benzenesulfonamide] | 56

Source: patent US10759790B2, “Heterocyclic constrained tricyclic sulfonamides as anti-cancer agents” (ICAHN SCHOOL OF MEDICINE AT MOUNT SINAI, priority 2015, dated 2020)
